pIC50: −log10 of the molar value. Read-outs that look alike come from different tables or passages of the source.
What was measured:
[1] = system: human G2 acute lymphoblastic leukemia (ALL) cells; test: Flow cytometry cell-based assay: inhibition of soluble VCAM-1 binding to G2 ALL cells
Method: (§1) Compounds were tested for their ability to inhibit the binding of soluble VCAM-1 to human G2 acute lymphoblastic leukemia (ALL) cells. Briefly, G2 ALL cells are pre-incubated with increasing concentrations (0.001 to 1000 nM) of compounds for 30 minutes. Soluble VCAM/Fc chimera protein (R&D systems) is then added to the mixture and the cells incubated for an additional 30 minutes. Afterwards, cells are washed and VCAM-1 is detected using PE-conjugated secondary mAbs. In each experiment, an aliquot of cells will be stained with isotype control mAbs to serve as a negative control. The percentage of VCAM-1 binding cells was then determined by flow cytometry.
as §1, with “(ALL) cells or 5TGMI myeloma” for “(ALL)”, “ALL or 5TGMI” for “ALL”

[2] = system: murine HSPCs; test: Colony forming cell (CFC/CFU) assay of mobilized peripheral blood, DBA/2 mice; type: in vivo; details: for amount of CFU-C cells mobilized in combination with Groβt versus inhibitor alone: DBA/2J mice, FIG. 16
Method: The VLA-4 inhibitors Examples 1220, 1221, 1224, 1610, and 1611 were prepared in DMSO/10 mM sodium bicarbonate pH 8/saline (1%/49.5%/49.5%) and injected subcutaneously (SC) at a dose of 3 mg/kg.
(§2) Peripheral blood (PB) was drawn from the facial vein without anaesthesia into K/EDTA anti-coagulated tubes (Sarstedt AG & Co, Numbrecht, Germany). Red blood cells were removed from 25 L aliquots of blood using hypotonic lysis (Ammonium-Chloride-Potassium, ACK buffer, 5-10 min at RT) and samples were mixed with 2.5 mL methylcellulose media supplemented with a cocktail of recombinant cytokines (MethoCult 3434; Stem Cell Technologies, Vancouver, BC, Canada). Cultures were plated in duplicate in 35 mm dishes and placed in a humidified chamber with 5% CO2 at 37° C. After 7 d of culture, colonies containing at least 50 cells were counted using an inverted microscope in a blinded fashion.
(§3) Recombinant human CXCL2 (Groβt; R&D systems) was reconstituted in sterile Ca^+2/Mg^+2-free phosphate buffered saline (PBS) and injected subcutaneously (SC) at a dose of 2.5 mg/kg. Firategrast (U.S. Patent Application No. 2014/051655) was dissolved in Ca^+2/Mg^+2-free PBS plus 1% ethanol and injected intravenously at a dose of 100 mg/kg. RhG-CSF (Neupogen®, Filgrastim, Amgen, Thousand Oaks, Calif., USA) diluted in PBS was injected i.p. every 12 hrs at a dose of 100 μg/kg for a total of 9 (day 5) doses.
as §2, with “Co, Nimbrecht,” for “Co, Numbrecht,”, “25 μL” for “25 L”
as §3, with “(published structure: C27H27F2NO6; U.S.” for “(U.S.”

[3] = system: LSK cells; test: Flow cytometric enumeration of mobilized LSK cells, DBA/2J mice; type: in vivo; details: for LSK cell mobilization compared with firategrast: FIG. 17
Method: Peripheral blood (PB) was drawn from the facial vein without anaesthesia into K/EDTA anti-coagulated tubes (Sarstedt AG & Co, Nimbrecht, Germany). Cell counts (WBC) were determined using an automatic hemocytometer (Hemavet 950, Drew Scientific, Dallas, Tex.). Red blood cells were removed from 25 μL aliquots of blood using hypotonic lysis (Ammonium-Chloride-Potassium, ACK buffer, 5-10 min at RT). Samples were resuspended in staining buffer (PBS supplemented with 0.5% bovine serum albumin and 2 mM EDTA) and incubated for 30 min at 4° C. with pre-titrated saturating dilutions of the following fluorochrome-labeled monoclonal antibodies (BD Biosciences, San Jose, Calif.; clone designated in parenthesis): Sca1-PE (D7), CD117-BV421 (ACK2), lineage-APC (17A2, RB6-8C5, RA3-6B2, Ter-119, M/170) and CD45-A700 (30-F11). Dead cells were excluded from these assays by staining with 2 μg/mL 7-amino-actinomycin D (Molecular Probes, Eugene, Oreg.) for 5 min prior to analysis. Appropriate isotype-matched negative controls were used to assess background fluorescence intensity. Samples were analyzed on a Beckman Coulter Gallios flow cytometer and data were analyzed using FlowJo software (TreeStar, Ashland, Oreg.). Absolute numbers of immunophenotypically defined populations (e.g. LSK) were calculated by identifying CD45 positive cells as WBC from the corresponding cell count analysis. Statistical comparisons of flow cytometry data were performed using an unpaired two-tailed Student t-test (GraphPad Prism). P-values ≤0.05 were considered significant.

[4] = system: 5TGMI myeloma cells; test: Flow cytometry cell-based assay: inhibition of soluble VCAM-1 binding to 5TGMI myeloma cells; details: FIG. 12
Method: as §1, with “(ALL) cells or 5TGMI myeloma” for “(ALL)”, “ALL or 5TGMI” for “ALL”

[5] = Table 10; inhibition of sVCAM-1 binding to human G2 ALL cells; read-out: sVCAM-1 IC50
[6] = flow cytometry, FIG. 5, 8, 9, 12
[7] = Table 8; inhibition of sVCAM-1 binding to human G2 ALL cells; read-out: sVCAM-1 IC50

Row | pIC50 [1, 7] | SMILES | inhibition of sVCAM-1 binding compared with Firategrast [1, 6] | LSK cell mobilization compared with firategrast [3] | other results
1 | – | CCOCc1cc(OC)c(-c2ccc(C[C@H](NC(=O)[C@@H]3CCCN3S(=O)(=O)c3ccccc3)C(=O)O)cc2)c(OC)c1 [Cmpd 35, (S)-3-(4′-(ethoxymethyl)-2′,6′-dimethoxy-[1,1′-biphenyl]-4-yl)-2-((S)-1-(phenylsulfonyl)pyrrolidine-2-carboxamido)propanoic acid] | – | – | pIC50 ([1]; Table 12; inhibition of sVCAM-1 binding to human G2 ALL cells; read-out: sVCAM-1 IC50): 9.08; amount of CFU-C cells mobilized in combination with Groβt versus inhibitor alone [2]: nearly doubled
2 | – | CCOCc1cc(OC)c(-c2ccc(C[C@H](NC(=O)[C@@H]3CCCN3S(=O)(=O)c3cc(Cl)cc(Cl)c3)C(=O)O)cc2)c(OC)c1 [Cmpd 36, (S)-2-((S)-1-((3,5-dichlorophenyl)sulfonyl)pyrrolidine-2-carboxamido)-3-(4′-(ethoxymethyl)-2′,6′-dimethoxy-[1,1′-biphenyl]-4-yl)propanoic acid] | – | – | pIC50 ([1]; read-out: sVCAM-1 IC50; Table 12; inhibition of sVCAM-1 binding to human G2 ALL cells): 9.31; amount of CFU-C cells mobilized in combination with Groβt versus inhibitor alone [2]: nearly doubled
3 | – | COc1cccc(OC)c1-c1ccc(C[C@H](NC(=O)[C@]2(C)CCCN2S(=O)(=O)c2cc(Cl)cc(Cl)c2)C(=O)O)cc1 [Compound 824] | significantly more potent | greater extent than firategrast | pIC50 [1, 5]: 9.22
4 | – | COc1cc(CC(=O)N[C@@H](CC(C)C)c2cc(CCC(=O)O)on2)ccc1NC(=O)Nc1ccccc1C [Compound 842] | significantly more potent | – | pIC50 [1, 5]: 9.40; CFU-C mobilization, VLA4 blockade combined with CXCR2 stimulation ([2]; DBA2/J mice, FIG. 15/29): mobilized; LSK mobilization, VLA4 blockade combined with CXCR2 stimulation ([3]; DBA2/J mice, FIG. 15/29): mobilized
5 | 9.08 | CCOCc1cc(OC)c(-c2ccc(C[C@H](NC(=O)[C@@H]3CCCN3S(=O)(=O)c3ccccc3)C(=O)O)cc2)c(OC)c1 [Compound 1610, (S)-3-(4′-(ethoxymethyl)-2′,6′-dimethoxy-[1,1′-biphenyl]-4-yl)-2-((S)-1-(phenylsulfonyl)pyrrolidine-2-carboxamido)propanoic acid] | significantly more potent than Firategrast | greater extent than firategrast | inhibition of VCAM binding in 5TGMI cells compared with Firategrast / BIO5192 [4]: even more potent than BIO5192
6 | 8.48 | CCOCc1cc(OC)c(-c2ccc(C[C@H](NC(=O)c3c(Cl)cccc3Cl)C(=O)O)cc2C(C)O)c(OC)c1 (stereo partly drawn) [Compound 1633, (2S)-2-(2,6-dichlorobenzamido)-3-(4′-(ethoxymethyl)-2-(1-hydroxyethyl)-2′,6′-dimethoxy-[1,1′-biphenyl]-4-yl)propanoic acid] | significantly more potent than Firategrast | greater extent than firategrast | –

Row | SMILES | pIC50 [1, 7] | inhibition of sVCAM-1 binding compared with Firategrast [1, 6] | LSK cell mobilization compared with firategrast [3] | other results
7 | CCOCc1cc(OC)c(-c2ccc(C[C@H](NC(=O)[C@@H]3CCCN3S(=O)(=O)c3cc(Cl)cc(Cl)c3)C(=O)O)cc2)c(OC)c1 [Compound 1611, (S)-2-((S)-1-((3,5-dichlorophenyl)sulfonyl)pyrrolidine-2-carboxamido)-3-(4′-(ethoxymethyl)-2′,6′-dimethoxy-[1,1′-biphenyl]-4-yl)propanoic acid] | 9.31 | significantly more potent than Firategrast | greater extent than firategrast | inhibition of VCAM binding in 5TGMI cells compared with Firategrast / BIO5192 [4]: even more potent than BIO5192

— US20190328706A1, “COMPOSITIONS COMPRISING AN INTEGRIN INHIBITOR AND AGENTS WHICH INTERACT WITH A CHEMOKINE AND METHODS OF USE THEREOF” (Saint Louis University, priority 2016, published 2019)
